System: Tetranychus Urticae (Two-Spotted Spider Mite)
Experiment: Tetranychus urticae (two-spotted spider mite): feeding/contact activity
Assay type: in vivo
Conditions: foliar, 192 h, application rate of 200 ppm, bean leaf discs sprayed, mixed population (mobile stages), 8 days after infestation
Experimental: Example B1: Tetranychus Urticae (Two-Spotted Spider Mite): Feeding/Contact Activity
Bean leaf discs on agar in 24-well microtiter plates were sprayed with aqueous test solutions prepared from 10'000 ppm DMSO stock solutions. After drying the leaf discs were infested with a mite population of mixed ages. The samples were assessed for mortality on mixed population (mobile stages) 8 days after infestation.

SMILES | mortality at 200 ppm [%]
CN(C)C(=O)CN1CCN(C(=O)c2cc(C#N)c(OCc3cc(C(F)(F)F)ccc3F)nc2C(F)(F)F)CC1 [Compound P2.6, 2-[4-[5-Cyano-6-[[2-fluoro-5-(trifluoromethyl)phenyl]methoxy]-2-(trifluoromethyl)pyridine-3-carbonyl]piperazin-1-yl]-N,N-dimethyl-acetamide] | ≥ 80
CNS(=O)(=O)C1CCN(C(=O)c2cc(C#N)c(OCc3cc(C(F)(F)F)ccc3F)nc2C(F)(F)F)CC1 [Compound P1.1, 1-[5-cyano-6-[[2-fluoro-5-(trifluoromethyl)phenyl]methoxy]-2-(trifluoromethyl)pyridine-3-carbonyl]-N-methyl-piperidine-4-sulfonamide] | ≥ 80
CN(C)S(=O)(=O)C1CCN(C(=O)c2cc(C#N)c(OCc3ccc4c(c3)OC(F)(F)O4)nc2C(F)(F)F)CC1 [Compound P1.24, 1-[5-Cyano-6-[(2,2-difluoro-1,3-benzodioxol-5-yl)methoxy]-2-(trifluoromethyl)pyridine-3-carbonyl]-N,N-dimethyl-piperidine-4-sulfonamide] | ≥ 80
CN(C)C(=O)CC1CCN(C(=O)c2cc(C#N)c(OCc3cc(C(F)(F)F)ccc3F)nc2C(F)(F)F)CC1 [Compound P1.37, 2-[1-[5-Cyano-6-[[2-fluoro-5-(trifluoromethyl)phenyl]methoxy]-2-(trifluoromethyl)pyridine-3-carbonyl]-4-piperidyl]-N,N-dimethyl-acetamide] | ≥ 80

— US20240383873A1, “PESTICIDALLY ACTIVE CYCLIC AMINE COMPOUNDS” (SYNGENTA CROP PROTECTION AG, priority 2021, published 2024)
